# According to patent US20220144812A1, “QUINOLINE DERIVATIVES AND THEIR USE FOR THE TREATMENT OF CANCER” (Epizyme, Inc., priority 2019, published 2022):
# Like-named read-outs stand apart in the source and are kept apart here.
# Tested on: H3K18Ac in HB-CLS-2 cells
# Test: H3K18AC in-cell western (ICW) assay
# Assay type: cell-based
# Conditions: H3K18Ac in-cell western, read-out: CREBBP ICW IC50
# Excerpt: The following example describes methods and materials relating to an H3K18AC in-cell western assay. IC50 values (micromolar (μM)) are summarized in Table 1, Table 2, and Table 3 under the column labeled: “CREBBP ICW IC50 (micromolar).”
# MATERIALS: HB-CLS-2 cell line, DMEM: Ham's F12 medium (1:1 mixture), penicillin-streptomycin, heat inactivated fetal bovine serum, D-PBS, Odyssey blocking buffer, 800CW goat anti-rabbit IgG (H+L) antibody, Licor Odyssey CLx Infrared Scanner, H3K18Ac rabbit monoclonal antibody. DRAQS fluorescent probe solution (5 mM), and 100% methanol were commercially available. HB-CLS-2 adherent cells were maintained in complete growth medium (DMEM: Ham's F12 supplemented with 10% v/v heat inactivated fetal bovine serum) and cultured at 37° C. under 5% CO2.
# METHOD: Cell Treatment, ICW for detection of H3K18Ac and DNA content. HB-CLS-2 cells were seeded in assay medium (DMEM: Ham's F12 supplemented with 10% v/v heat inactivated fetal bovine serum and 1% Penicillin/Streptomycin) at a concentration of 80,000 cells per mL in a Poly-D-Lysine coated 384-well culture plates at 50 μL per well. Plates were incubated at room temperature for 30 minutes and then incubated at 37° C., 5% CO2 for additional 16-24 hours. Compounds and DMSO normalization were then added directly to the plates using a D300 Digital Dispenser and returned to the incubator at 37° C., 5% CO2 for 2 hrs. After the incubation, the contents of the plates were discarded into the appropriate waste stream and blotted on laboratory tissue to remove residual liquid. 90 μL per well of 100% ice cold methanol was added to the plates and incubated at room temperature for 15 minutes. Then methanol was then discarded into the appropriate waste stream and the plates again blotted on laboratory tissue to remove residual liquid. Plates were transferred to a Biotek 405 plate washer and washed 3 times with 100 μL per well of wash buffer (1X PBS containing 0.1% Triton X-100 (v/v)). Next, 50 μL per well of Odyssey blocking buffer with 0.1% Tween 20 (v/v) was added to each plate and incubated for 1 hour at room temperature. Blocking buffer was removed and 20 μL of primary antibody were added (α-H3K18Ac diluted 1:800 in Odyssey buffer with 0.1% Tween 20 (v/v)) and plates were incubated overnight (16 hours) at 4° C. Plates were washed 5 times with 100 μL per well of wash buffer. Next 20 μL per well of secondary antibody was added (1:400 800CW goat anti-rabbit IgG (H+L) antibody, 1:2000 DRAQ5 in Odyssey buffer with 0.1% Tween 20 (v/v)) and incubated for 1 hour at room temperature. The plates were washed 3 times with 100 μL per well wash buffer then 3 times with 100 μL per well of water. Plates were allowed to dry at room temperature then imaged on the Licor Odyssey CLx machine which measured integrated intensity at 700 nm and 800 nm wavelengths. Both 700 and 800 channels were scanned.
IC50 [µM],IC50 (HB-CLS-2 cells) [µM],Structure (SMILES)
20,,CCn1ncc(CN(C)C(=O)c2nc(N3CCCNCC3)nc3ccc(Cl)cc23)c1C [Compound 187]
20,,CCn1ncc(CN(C)C(=O)c2nc(-c3cnn(CCCN(C)C(=O)OC(C)(C)C)c3)nc3ccc(Cl)cc23)c1C [Compound 188]
20,,CCn1ncc(CN(C)C(=O)c2nc(-c3cnn(CCCNC(=O)OC(C)(C)C)c3)nc3ccc(Cl)cc23)c1C [Compound 189]
20,,CCn1ncc(CN(C)C(=O)c2nc(-c3cccc(Cl)c3)nc3cc(N4CCOCC4)ccc23)c1C [Compound 191]
20,,CCn1ncc(CN(C)C(=O)c2nc(N3CCN(C(C)=O)CC3)nc3ccc(Cl)cc23)c1C [Compound 195]
,20,CCn1ncc(CN(C)C(=O)c2nc(-c3cnn(CCN(C)C(=O)OC(C)(C)C)c3)nc3ccc(Cl)cc23)c1C [Compound 197]
,20,CCn1nc(C)c(CN(C)C(=O)c2nc(-c3ccccc3Cl)nc3ccc(Cl)cc23)c1C [Compound 201]
,20,CCn1ncc(CN(C)C(=O)c2cc(-c3cn(C)c(C)n3)nc3cc(Cl)ccc23)c1C [Compound 203]
,20,CCn1ncc(CN(C)C(=O)c2nc(-c3cnn(CC4CCCN4)c3)nc3ccc(Cl)cc23)c1C (centres unmarked) [Compound 204]
,20,CCn1ncc(CN(C)C(=O)c2cc(N3CCN(C(=O)OC(C)(C)C)CC3)nc3ccc(Cl)cc23)c1C [Compound 205]
,20,CCn1ncc(CN(C)C(=O)c2nc(C3CCCN3)nc3ccc(Cl)cc23)c1C (centres unmarked) [Compound 207]
,20,CCn1ncc(CN(C)C(=O)c2cc(N3CCN(C)CC3)nc3ccc(Cl)cc23)c1C [Compound 214]
,20,CCn1ncc(CN(C)C(=O)c2nc(-c3cnn(CCC(O)CNC)c3)nc3ccc(Cl)cc23)c1C (centres unmarked) [Compound 223]
,20,CCn1ncc(CN(C)C(=O)c2nc(-c3ccc4ccn(C(=O)OC(C)(C)C)c4c3)nc3ccc(Cl)cc23)c1C [Compound 234]
,20,CCn1ncc(CN(C)C(=O)c2cc(N3CCN(C(C)=O)CC3)nc3ccc(Cl)cc23)c1C [Compound 244]
,20,CCn1ncc(CN(C)C(=O)c2cc(N3CCNCC3)nc3ccc(Cl)cc23)c1C [Compound 246]
,20,CCn1ncc(CN(C)C(=O)c2nc(-c3cnn(CCC(O)CN4CCCC4)c3)nc3ccc(Cl)cc23)c1C (centres unmarked) [Compound 249]
,20,CCn1ncc(CN(C)C(=O)c2nc(-c3ccc(OCCN(C)C(=O)OC(C)(C)C)c(F)c3)nc3ccc(Cl)cc23)c1C [Compound 251]
,20,CCn1ncc(CN(C)C(=O)c2nc(-c3ccc(OCCNC(=O)OC(C)(C)C)c(F)c3)nc3ccc(Cl)cc23)c1C [Compound 252]
,0.26,CCn1ncc(CN(C)C(=O)c2nc(-c3cc(C(=O)NC4CC4)n(C)n3)nc3ccc(Cl)cc23)c1C [Compound 421]
,0.6,CCn1ncc(CN(C)C(=O)c2nc(-c3cc(N)c4nc[nH]c4c3)nc3ccc(Cl)cc23)c1C [Compound 422]
,0.53,CCc1cc(CNC)cc(-c2nc(C(=O)N(C)Cc3cnn(CC)c3C)c3cc(Cl)ccc3n2)c1 [Compound 423]
,0.15,CCc1nc(-c2cc(C(=O)N(C)Cc3cnn(CC)c3C)c3cc(Cl)ccc3n2)ccc1NCCNC [Compound 425]
,0.19,CCn1ncc(CN(C)C(=O)c2cc(-c3ccc(NCCNC)c(C)n3)nc3ccc(COC)cc23)c1C [Compound 427]
,0.16,CCn1ncc(CN(C)C(=O)c2cc(-c3ccc(NCCNC)c(C)n3)nc3ccc(C)cc23)c1C [Compound 429]

Structure (SMILES),IC50 [µM],IC50 (HB-CLS-2 cells) [µM]
CCn1ncc(CN(C)C(=O)c2cc(-c3ccc(N(C)CCN(C)C)c(C)n3)nc3ccc(Cl)cc23)c1C [Compound 420],,0.74
CCn1ncc(CN(C)C(=O)c2cc(-c3cnc(NCCNC)cn3)nc3ccc(Cl)cc23)c1C [Compound 424],,0.4
CCn1ncc(CN(C)C(=O)c2nc(-c3ccc(OC4CCNCC4)c(OC)c3)nc3ccc(Cl)cc23)c1C [Compound 428],,1.4
CCn1ncc(CN(C)C(=O)c2cc(-c3ccc(OCCCNC)c(C)n3)nc3ccc(Cl)cc23)c1C [Compound 430],,0.69
